# Where “and” joins values, the source holds several entries; their conditions need not be identical. Equal entries are not always repeated.
# Assays:
# PIK3CD (Human) [1] = target: PIK3CD (Human) (UniProt O00329); test: Assessment of Stimulus Induced TCE Cell Proliferation; conditions: t cells
# PIK3CB = PIK3CB (UniProt P42338); test: Inhibition of PIK3CB Kinase Activity; conditions: for inhibition: concentration not given here
# PIK3CD (Human) [2] = target: PIK3CD (Human) (UniProt O00329); test: Evaluation of PIK3CD inhibitors on Elastase Release in Human PMN Cells
# PIK3CD (mouse) [3] = test: Assessment of Stimulus Induced B Cell Proliferation; conditions: b cells
# PIK3CA = PIK3CA (UniProt P42336); test: Inhibition of PIK3CA Kinase Activity; conditions: for inhibition: concentration not given here
# Sequence of PIK3CA (P42336 whole entry, looked up): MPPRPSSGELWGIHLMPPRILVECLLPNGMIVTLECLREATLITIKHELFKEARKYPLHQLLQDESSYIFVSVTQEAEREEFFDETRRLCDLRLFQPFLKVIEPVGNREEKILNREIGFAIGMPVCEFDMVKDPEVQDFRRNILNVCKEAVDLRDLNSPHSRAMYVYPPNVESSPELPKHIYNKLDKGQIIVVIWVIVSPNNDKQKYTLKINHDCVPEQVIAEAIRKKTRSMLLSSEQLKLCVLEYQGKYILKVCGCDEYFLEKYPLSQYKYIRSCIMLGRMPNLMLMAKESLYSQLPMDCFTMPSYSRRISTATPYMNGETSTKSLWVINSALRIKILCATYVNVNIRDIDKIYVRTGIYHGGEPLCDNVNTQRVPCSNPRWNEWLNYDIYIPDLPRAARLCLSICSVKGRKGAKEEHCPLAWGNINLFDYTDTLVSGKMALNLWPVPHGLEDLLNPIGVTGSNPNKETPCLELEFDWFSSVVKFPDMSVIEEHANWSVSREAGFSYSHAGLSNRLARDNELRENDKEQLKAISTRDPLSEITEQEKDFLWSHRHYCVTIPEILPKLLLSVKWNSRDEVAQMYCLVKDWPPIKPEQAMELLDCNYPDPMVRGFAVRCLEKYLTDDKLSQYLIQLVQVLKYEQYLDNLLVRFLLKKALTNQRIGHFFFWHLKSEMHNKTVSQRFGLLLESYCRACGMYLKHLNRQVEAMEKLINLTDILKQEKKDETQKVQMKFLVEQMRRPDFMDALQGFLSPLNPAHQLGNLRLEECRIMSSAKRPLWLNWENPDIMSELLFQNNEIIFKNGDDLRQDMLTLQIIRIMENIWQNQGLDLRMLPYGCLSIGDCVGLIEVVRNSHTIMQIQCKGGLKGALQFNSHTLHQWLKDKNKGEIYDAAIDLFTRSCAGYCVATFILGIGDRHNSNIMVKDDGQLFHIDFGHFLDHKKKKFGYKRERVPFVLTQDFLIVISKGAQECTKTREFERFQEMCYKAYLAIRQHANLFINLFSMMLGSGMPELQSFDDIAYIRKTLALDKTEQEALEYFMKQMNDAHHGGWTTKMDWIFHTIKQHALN
# PIK3CD = PIK3CD (UniProt O00329); test: Inhibition of PIK3CD Kinase Activity
# Sequence of PIK3CD (O00329 whole entry, looked up): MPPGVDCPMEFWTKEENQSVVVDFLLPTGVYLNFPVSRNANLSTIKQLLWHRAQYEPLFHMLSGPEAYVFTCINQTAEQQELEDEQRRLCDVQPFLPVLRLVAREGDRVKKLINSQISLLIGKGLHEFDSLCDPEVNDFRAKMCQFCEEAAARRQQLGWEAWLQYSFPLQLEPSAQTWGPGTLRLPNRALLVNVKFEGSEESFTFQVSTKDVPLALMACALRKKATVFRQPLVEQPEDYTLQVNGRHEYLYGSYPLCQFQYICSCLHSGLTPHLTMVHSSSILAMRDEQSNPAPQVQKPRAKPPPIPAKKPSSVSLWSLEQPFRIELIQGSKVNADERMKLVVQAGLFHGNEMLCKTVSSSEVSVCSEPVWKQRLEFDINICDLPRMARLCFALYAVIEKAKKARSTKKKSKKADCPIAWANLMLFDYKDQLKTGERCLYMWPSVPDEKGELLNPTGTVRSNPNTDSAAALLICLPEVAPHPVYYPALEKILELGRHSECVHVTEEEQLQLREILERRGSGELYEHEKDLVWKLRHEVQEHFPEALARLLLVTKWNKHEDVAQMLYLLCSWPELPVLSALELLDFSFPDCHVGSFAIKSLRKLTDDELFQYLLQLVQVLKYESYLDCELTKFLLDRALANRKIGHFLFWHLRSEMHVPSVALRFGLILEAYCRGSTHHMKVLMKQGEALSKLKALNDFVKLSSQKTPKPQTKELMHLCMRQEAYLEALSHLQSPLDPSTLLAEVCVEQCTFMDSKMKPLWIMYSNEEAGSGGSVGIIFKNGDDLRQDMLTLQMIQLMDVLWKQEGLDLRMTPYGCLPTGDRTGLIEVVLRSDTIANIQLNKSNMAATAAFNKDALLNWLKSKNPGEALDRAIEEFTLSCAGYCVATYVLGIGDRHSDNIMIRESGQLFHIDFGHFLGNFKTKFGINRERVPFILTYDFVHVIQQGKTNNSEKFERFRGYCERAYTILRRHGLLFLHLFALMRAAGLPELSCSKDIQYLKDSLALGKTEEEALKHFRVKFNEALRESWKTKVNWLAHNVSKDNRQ
# PIK3CD (Human) [4] = target: PIK3CD (Human) (UniProt O00329); test: Evaluation of PIK3CD inhibitors on Neutrophil Migration; conditions: pmn
# PIK3CG = PIK3CG (UniProt P48736); test: Inhibition of PIK3CG Kinase Activity; conditions: for inhibition: concentration not given here
# Sequence of PIK3CG (P48736 whole entry, looked up): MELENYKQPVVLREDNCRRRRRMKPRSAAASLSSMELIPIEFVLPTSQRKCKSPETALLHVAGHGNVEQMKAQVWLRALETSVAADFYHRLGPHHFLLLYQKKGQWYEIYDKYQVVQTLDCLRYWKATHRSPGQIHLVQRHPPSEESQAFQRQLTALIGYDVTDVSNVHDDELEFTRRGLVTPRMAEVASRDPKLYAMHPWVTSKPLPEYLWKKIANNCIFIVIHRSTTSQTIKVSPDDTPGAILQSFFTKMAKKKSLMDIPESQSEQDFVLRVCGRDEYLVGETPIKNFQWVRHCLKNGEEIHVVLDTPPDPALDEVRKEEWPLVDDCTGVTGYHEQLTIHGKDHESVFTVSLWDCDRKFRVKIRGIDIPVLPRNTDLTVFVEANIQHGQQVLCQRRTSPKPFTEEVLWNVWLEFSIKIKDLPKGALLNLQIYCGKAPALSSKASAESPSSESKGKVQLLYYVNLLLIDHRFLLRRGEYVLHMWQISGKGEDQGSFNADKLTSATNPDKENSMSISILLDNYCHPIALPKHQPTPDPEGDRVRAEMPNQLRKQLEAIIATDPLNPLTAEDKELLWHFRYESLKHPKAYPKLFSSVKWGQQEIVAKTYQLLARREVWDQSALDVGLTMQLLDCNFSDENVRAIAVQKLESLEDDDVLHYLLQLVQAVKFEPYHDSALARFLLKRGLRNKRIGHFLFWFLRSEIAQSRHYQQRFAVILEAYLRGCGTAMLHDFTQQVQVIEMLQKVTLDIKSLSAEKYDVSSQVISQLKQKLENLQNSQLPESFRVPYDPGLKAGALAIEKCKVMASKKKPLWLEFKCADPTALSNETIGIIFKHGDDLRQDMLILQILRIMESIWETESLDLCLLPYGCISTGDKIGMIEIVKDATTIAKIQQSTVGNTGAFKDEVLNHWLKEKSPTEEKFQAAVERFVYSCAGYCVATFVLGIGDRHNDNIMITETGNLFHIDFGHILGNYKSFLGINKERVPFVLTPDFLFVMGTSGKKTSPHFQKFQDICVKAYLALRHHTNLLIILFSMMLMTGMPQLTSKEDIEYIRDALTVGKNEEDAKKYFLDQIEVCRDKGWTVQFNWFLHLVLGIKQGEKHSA
# PIK3CD (Human) [5] = target: PIK3CD (Human) (UniProt O00329); test: Assessment of RWLeu4 Cell Proliferation
# PIK3CD (Human) [6] = target: PIK3CD (Human) (UniProt O00329); test: Assessment of Cell Proliferation in KU812 Cells
# PIK3CD (mouse) [7] = test: Evaluation of PIK3CD inhibitors on Osteoclast Function; conditions: bone marrow, dose or concentration not given here
# PIK3CD (Human) [8] = target: PIK3CD (Human) (UniProt O00329); test: Evaluation of PIK3CD inhibitors on Basophil Function by Histamine Release Assay; conditions: basophils
# Sequence of PIK3CB (P42338 whole entry, looked up): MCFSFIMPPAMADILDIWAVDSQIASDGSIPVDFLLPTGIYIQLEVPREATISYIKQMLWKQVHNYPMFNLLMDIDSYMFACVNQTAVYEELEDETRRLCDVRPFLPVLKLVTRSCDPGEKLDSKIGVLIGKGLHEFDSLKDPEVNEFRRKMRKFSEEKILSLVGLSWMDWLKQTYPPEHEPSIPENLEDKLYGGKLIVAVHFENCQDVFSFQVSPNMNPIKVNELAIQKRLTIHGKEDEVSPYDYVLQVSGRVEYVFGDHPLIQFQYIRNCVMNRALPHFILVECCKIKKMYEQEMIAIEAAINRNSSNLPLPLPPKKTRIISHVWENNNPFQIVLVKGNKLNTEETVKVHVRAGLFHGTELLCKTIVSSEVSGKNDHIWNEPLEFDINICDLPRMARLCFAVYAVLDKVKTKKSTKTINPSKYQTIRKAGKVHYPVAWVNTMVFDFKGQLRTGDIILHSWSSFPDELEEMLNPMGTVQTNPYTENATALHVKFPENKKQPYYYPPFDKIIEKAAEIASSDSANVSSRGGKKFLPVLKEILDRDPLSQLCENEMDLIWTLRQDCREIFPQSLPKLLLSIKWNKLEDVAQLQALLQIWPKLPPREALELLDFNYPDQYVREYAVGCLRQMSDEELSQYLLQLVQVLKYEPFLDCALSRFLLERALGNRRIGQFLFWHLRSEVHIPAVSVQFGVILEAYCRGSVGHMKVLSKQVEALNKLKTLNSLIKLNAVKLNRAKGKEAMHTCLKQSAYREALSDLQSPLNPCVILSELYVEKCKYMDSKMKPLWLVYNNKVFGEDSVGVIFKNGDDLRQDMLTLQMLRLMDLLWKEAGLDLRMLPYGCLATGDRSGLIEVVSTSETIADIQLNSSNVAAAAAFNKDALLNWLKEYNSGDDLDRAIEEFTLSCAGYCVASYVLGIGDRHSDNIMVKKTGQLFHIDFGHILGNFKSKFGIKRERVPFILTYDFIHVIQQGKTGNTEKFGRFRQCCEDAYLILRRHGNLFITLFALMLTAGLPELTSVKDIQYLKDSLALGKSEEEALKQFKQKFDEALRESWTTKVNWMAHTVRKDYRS
# Sequence of PIK3CD (Human) (O00329 whole entry, looked up): as the sequence (O00329 whole entry, looked up) above
Compound,EC50 (PIK3CD (Human) [1]) [µM],IC50 (PIK3CB),EC50 (PIK3CD (Human) [2]) [nM],EC50 (PIK3CD (mouse) [3]) [nM],inhibition (PIK3CB) [%],inhibition (PIK3CA) [%],also measured
Cc1cccc2nc(Cn3cnc4c(N)ncnc43)n(-c3ccccc3Cl)c(=O)c12,4.2,30 µM and 72 µM,400,300,–,–,–
O=c1c2cccc(C(F)(F)F)c2nc(CSc2ncnc3[nH]cnc23)n1-c1ccccc1Cl,–,–,–,–,7,12,IC50 (PIK3CD): 4.2 µM
Cc1cccc2nc(Cn3cnc4c(N)ncnc43)n(-c3ccccc3C(C)C)c(=O)c12,3.4,–,500,100,–,-10,EC50 (PIK3CD (Human) [4]): 300 nM; IC50 (PIK3CA): 49 µM
COc1ccccc1-n1c(CSc2ncnc3[nH]cnc23)nc2cccc(C)c2c1=O,–,30 µM and 9 µM,500,300,–,19,IC50 (PIK3CA): 30 µM
O=c1c2ccccc2nc(CSc2ncnc3[nH]cnc23)n1Cc1ccccc1,–,80 µM,1300,1200,42,–,EC50 (PIK3CD (Human) [4]): 2000 nM
O=c1c2ccccc2nc(CSc2ncnc3[nH]cnc23)n1-c1ccncc1,–,25 µM,–,–,–,30,–
CN1CCN(n2c(CSc3ncnc4[nH]cnc34)nc3ccccc3c2=O)CC1,–,61 µM,–,–,–,–,IC50 (PIK3CA): 105 µM
Cc1cccc2nc(CSc3ncnc4[nH]cnc34)n(-c3ccccc3C(C)C)c(=O)c12,2.9,–,300,200,–,–,–
CCOC(=O)Cn1c(CSc2ncnc3[nH]cnc23)nc2cccc(F)c2c1=O,–,–,9000,–,26,2,–
Nc1ncnc2c1ncn2Cc1nc2ccccc2c(=O)n1N1CCOCC1,–,–,–,–,43,11,–
Nc1ncnc2c1ncn2Cc1nc2cc(F)ccc2c(=O)n1-c1ccccc1Cl,5.7,–,–,3900,47,–,IC50 (PIK3CA): 92 µM
COc1cc2nc(Cn3cnc4c(N)ncnc43)n(-c3ccccc3Cl)c(=O)c2cc1OC,–,45 µM,–,–,–,17,–
O=c1c2ccc([N+](=O)[O-])cc2nc(CSc2ncnc3[nH]cnc23)n1-c1ccccc1Cl,–,–,–,–,9,17,–
Nc1ncnc2c1ncn2Cc1nc2cccc(Cl)c2c(=O)n1-c1ccccc1F,–,108 µM and 11 µM,300,300,–,–,IC50 (PIK3CG): 50 µM
CCCCn1c(Cn2cnc3c(N)ncnc32)nc2ccccc2c1=O,–,41 µM,–,–,–,1,–
O=c1c2c(F)cccc2nc(CSc2ncnc3[nH]cnc23)n1-c1ccccc1Cl,1.8,–,1300,1200,–,–,EC50 (PIK3CD (Human) [4]): 2000 nM; inhibition (PIK3CG): 83%
O=c1c2cc(O)ccc2nc(CSc2ncnc3[nH]cnc23)n1-c1ccccc1Cl,–,–,2900,–,24,–,IC50 (PIK3CA): 100 µM
O=c1c2ccccc2nc(CSc2ncnc3[nH]cnc23)n1-c1ccccc1Cl,5.5,–,2200,900,–,–,EC50 (PIK3CD (Human) [4]): 1000 to 5000 nM; EC50 (PIK3CD (Human) [5]): 2000 nM; EC50 (PIK3CD (Human) [6]): 2000 nM; inhibition (PIK3CD (mouse) [7]): 99%
COc1cccc(Cn2c(CSc3ncnc4[nH]cnc34)nc3ccccc3c2=O)c1,–,–,–,–,–,–,IC50 (PIK3CG): 72 µM
Cc1cccc2nc(Cn3cnc4c(N)ncnc43)n(-c3ccccc3F)c(=O)c12,5,95 µM and 14 µM,900,400,–,–,IC50 (PIK3CA): 90 µM and 70 µM
O=c1c2c(Cl)cccc2nc(CSc2ncnc3[nH]cnc23)n1-c1ccccc1F,–,105 µM and 55 µM,900,300,–,–,–
Cc1cccc2nc(CSc3ncnc4[nH]cnc34)n(-c3c(Cl)cccc3Cl)c(=O)c12,–,11 µM and 103 µM,–,600,–,8,IC50 (PIK3CA): 19 µM
O=c1c2cc(F)ccc2nc(CSc2ncnc3[nH]cnc23)n1-c1ccccc1Cl,–,13 µM,1000,400,19,–,–
COc1ccccc1-n1c(CSc2ncnc3[nH]cnc23)nc2ccccc2c1=O,–,95 µM,–,–,–,36,–
O=c1c2c(F)cccc2nc(CSc2ncnc3[nH]cnc23)n1Cc1ccccc1,2.6,–,–,1400,23,17,–
O=c1c2cc(Cl)ccc2nc(CSc2ncnc3[nH]cnc23)n1-c1ccccc1Cl,–,–,–,–,31,31,–
CCCCn1c(CSc2ncnc3[nH]cnc23)nc2ccccc2c1=O,2.9,–,5000,1400,–,–,–

Compound,EC50 (PIK3CD (Human) [1]) [µM],IC50 (PIK3CB),EC50 (PIK3CD (Human) [2]) [nM],EC50 (PIK3CD (mouse) [3]) [nM],inhibition (PIK3CB) [%],inhibition (PIK3CA) [%],also measured
O=c1c2cc3ccccc3cc2nc(CSc2ncnc3[nH]cnc23)n1-c1ccccc1Cl,0.9,105 µM and 100 µM,–,900,–,0,IC50 (PIK3CA): 67 µM
O=c1c2c(Cl)cccc2nc(CSc2ncnc3[nH]cnc23)n1-c1ccccc1-c1ccccc1,–,13 µM,–,1400,27,–,–
O=c1c2ccccc2nc(CSc2ncnc3[nH]cnc23)n1-c1cccc(Cl)c1,–,–,–,–,35,33,–
Nc1ncnc2c1ncn2Cc1nc2cccc(F)c2c(=O)n1Cc1ccccc1,6.3,30 µM,5000,2000,–,-10,–
O=c1c2c(Cl)cccc2nc(CSc2ncnc3[nH]cnc23)n1-c1ccccc1Cl,4.4,–,300,300,–,–,EC50 (PIK3CD (Human) [4]): 300 nM
O=c1c2ccccc2nc(CSc2ncnc3[nH]cnc23)n1-c1ccccc1,–,–,–,1400,–,–,inhibition (PIK3CG): 39%
COc1ccccc1Cn1c(CSc2ncnc3[nH]cnc23)nc2ccccc2c1=O,4.1,31 µM,5500,900,27,–,EC50 (PIK3CD (Human) [4]): 200 nM
Nc1ncnc2c1ncn2Cc1nc2ccc(Br)cc2c(=O)n1-c1ccccc1Cl,–,–,–,–,22,12,–
Nc1ncnc2c1ncn2Cc1nc2c(Cl)cccc2c(=O)n1-c1ccccc1Cl,–,68 µM,–,1000,–,18,–
O=c1c2cc(F)c(F)cc2nc(CSc2ncnc3[nH]cnc23)n1-c1ccccc1Cl,–,110 µM and 58 µM,2000,> 2000,–,–,–
O=c1c2cccc(Cl)c2nc(CSc2ncnc3[nH]cnc23)n1-c1ccccc1Cl,3.5,110 µM,–,1800,–,–,IC50 (PIK3CA): 100 µM
Nc1ncnc2c1ncn2Cc1nc2cccc(F)c2c(=O)n1-c1ccccc1Cl,3.9,46 µM,4300,700,18,–,inhibition (PIK3CG): 9%
Cc1ccccc1-n1c(Cn2cnc3c(N)ncnc32)nc2cccc(C)c2c1=O,–,–,–,100,–,–,–
Cc1cccc2nc(CSc3ncnc4[nH]cnc34)n(-c3ccccc3F)c(=O)c12,–,–,700,200,–,13,IC50 (PIK3CA): 74 µM
Nc1ncnc2c1ncn2Cc1nc2cccc(Cl)c2c(=O)n1-c1ccccc1-c1ccccc1,–,6 µM and 18 µM,10500,300,–,30,IC50 (PIK3CA): 82 µM
Cc1ccccc1-n1c(CSc2ncnc3[nH]cnc23)nc2cccc(Cl)c2c1=O,–,–,300,200,–,26,IC50 (PIK3CA): 48 µM
Nc1ncnc2c1ncn2Cc1nc2cccc(Cl)c2c(=O)n1-c1ccccc1Cl,5.3,6 µM and 44 µM,300,200,–,–,–
COc1cccc(-n2c(CSc3ncnc4[nH]cnc34)nc3ccccc3c2=O)c1,–,–,–,–,36,23,–
O=c1c2ccccc2nc(CSc2ncnc3[nH]cnc23)n1-c1ccc(Cl)cc1,–,–,–,–,31,–,IC50 (PIK3CA): 0.7 µM
O=c1c2ccc(F)cc2nc(CSc2ncnc3[nH]cnc23)n1-c1ccccc1Cl,2.3,110 µM,–,1800,-1,–,inhibition (PIK3CG): 40%
O=c1cc(N2CCOCC2)oc2c(-c3ccccc3)cccc12,–,–,–,900,–,–,inhibition (PIK3CD (Human) [8]; concentration not given here): 100%
O=c1c2ccccc2nc(CSc2ncnc3[nH]cnc23)n1N1CCOCC1,–,–,5000,900,–,–,inhibition (PIK3CG): 57%
O=c1c2cc(Br)ccc2nc(CSc2ncnc3[nH]cnc23)n1-c1ccccc1Cl,–,–,–,–,-8,11,–
Nc1ncnc2c1ncn2Cc1nc2ccc(Cl)cc2c(=O)n1-c1ccccc1Cl,–,–,–,–,11,7,–
O=c1c2ccccc2nc(CSc2ncnc3[nH]ncc23)n1-c1ccccc1Cl,5.9,–,> 20000,3100,29,38,EC50 (PIK3CD (Human) [4]): 1000 nM; IC50 (PIK3CA): 105 µM
Cc1cccc2nc(CSc3ncnc4[nH]cnc34)n(-c3ccccc3Cl)c(=O)c12,3.5,–,200,300,–,–,EC50 (PIK3CD (Human) [4]): 300 nM; EC50 (PIK3CD (Human) [8]): 25 nM
COc1cc2nc(CSc3ncnc4[nH]cnc34)n(-c3ccccc3Cl)c(=O)c2cc1OC,–,–,–,–,19,9,–

# — the Kinase Knowledgebase extract (Sharma et al. 2016)
